In PubChem BioAssay AID218 (DTP/NCI, 2004) one finds T/C data, which are given here for 17 compounds.

“And” between values parts separate entries of the source, which are not always exact repeats. Equal values may be shown once. Starred links: 1 amine or outer side, 2 acyl side, 3 side chain; linkers in the order of their positions; H or OH if unused. Positions of bridges follow the written chain, without caps; N, C: chain ends. Non-standard residues stand in square brackets, D forms with d. Residues, ends and D or L forms follow the SMILES beside them. Chains are numbered I, II in the order given. Actinocin(9to1) = Cc1c2oc3c(C)ccc(C(=O)[*:1])c3nc-2c(C(=O)[*:2])c(N)c1=O; aThr = C[C@H](O)[C@H](N)C(=O)O; NMeV = CN[C@H](C(=O)O)C(C)C; Sar = CNCC(=O)O

For the experiment, the system named is C57BL/6 mice, Adenocarcinoma 755 sc, tumor weight T/C. The experiment can be described thus: NCI In Vivo Anticancer Drug Screen. Data for tumor model Adenocarcinoma 755 (subcutaneous) in C57BL/6 mice. The conditions noted are these: endpoint: mean tumor weight, higher = larger tumour. Here is the method: The antitumor activity of compounds was measured in mice bearing transplantable tumors. Survival or tumor size were measured and the results are expressed as the measurement made in the treated group (T) divided by the measurement made in the vehicle treated control group (C). The tumor model used in this assay is Adenocarcinoma 755 (subcutaneous) in C57BL/6 mice

Where [1] appears, read: dose: 50.0 mg/kg/injection, schedule: Q01DX011 (ip), vehicle: carboxymethylcellulose (CMC).
Setting [2] is: dose: 200.0 mg/kg/injection, schedule: Q01DX011 (ip), vehicle: saline.
The mark [3] stands for this setting: dose: 50.0 mg/kg/injection, schedule: Q01DX011 (ip), vehicle: saline.
The mark [4] stands for this setting: dose: 5.0 mg/kg/injection, schedule: Q01DX011 (ip), vehicle: carboxymethylcellulose (CMC).
The mark [5] stands for this setting: dose: 10.0 mg/kg/injection, schedule: Q01DX011 (ip), vehicle: carboxymethylcellulose (CMC).
[6] abbreviates: dose: 25.0 mg/kg/injection, schedule: Q01DX011 (ip), vehicle: carboxymethylcellulose (CMC).
Where [7] appears, read: dose: 100.0 mg/kg/injection, schedule: Q01DX011 (ip), vehicle: carboxymethylcellulose (CMC).
Where [8] appears, read: dose: 3.13 mg/kg/injection, schedule: Q01DX011 (ip), vehicle: saline.
Setting [9] is: dose: 6.25 mg/kg/injection, schedule: Q01DX011 (ip), vehicle: saline.
Setting [10] is: dose: 25.0 mg/kg/injection, schedule: Q01DX011 (ip), vehicle: saline.
[11] abbreviates: dose: 100.0 mg/kg/injection, schedule: Q01DX011 (ip), vehicle: saline.
[12] abbreviates: dose: 125.0 mg/kg/injection, schedule: Q01DX011 (ip), vehicle: saline.
[13] abbreviates: dose: 150.0 mg/kg/injection, schedule: Q01DX011 (ip), vehicle: saline.
The mark [14] stands for this setting: dose: 75.0 mg/kg/injection, schedule: Q02DX006 (ip), vehicle: other.
The mark [15] stands for this setting: dose: 2.5 mg/kg/injection, schedule: Q01DX011 (ip), vehicle: carboxymethylcellulose (CMC).
Where [16] appears, read: dose: 10.0 mg/kg/injection, schedule: Q02DX006 (ip), vehicle: other.
The mark [17] stands for this setting: dose: 20.0 mg/kg/injection, schedule: Q01DX011 (ip), vehicle: carboxymethylcellulose (CMC).
Setting [18] is: dose: 2.0 mg/kg/injection, schedule: Q01DX011 (ip), vehicle: saline.
[19] abbreviates: dose: 5.0 mg/kg/injection, schedule: Q01DX011 (ip), vehicle: saline.
[20] abbreviates: dose: 15.0 mg/kg/injection, schedule: Q01DX011 (ip), vehicle: saline.
Setting [21] is: dose: 10.0 mg/kg/injection, schedule: Q01DX011 (ip), vehicle: saline.
[22] abbreviates: dose: 20.0 mg/kg/injection, schedule: Q01DX011 (ip), vehicle: saline.

For orientation: T/C means the ratio of treated to control. Consider `Cn1cnc2[nH]cnc(=S)c21`, for which the T/C is 110 % of control under setting [1]; 45 % of control under setting [2]; 30 % of control (dose: 300.0 mg/kg/injection, schedule: Q01DX011 (ip), vehicle: saline); 22 % of control (dose: 400.0 mg/kg/injection, schedule: Q01DX011 (ip), vehicle: saline).

Consider `CCCCNc1ncnc2c1cnn2C`, for which the T/C reads like this: (dose: 40.0 mg/kg/injection, schedule: Q01DX011 (ip), vehicle: saline) 3 % of control; under setting [3], 13 % of control.

`CCCCNc1nc(N)nc2nc[nH]c12`: the T/C reads like this: under setting [4], 106 % of control; under setting [5], 104 % of control; under setting [6], 123 % of control; under setting [1], 78 % of control; under setting [7], 72 % of control.

Regarding `Cc1ncc(CO)c(C)c1O`, the T/C runs as follows: under setting [8], 88 % of control; under setting [9], 107 % of control; (dose: 12.5 mg/kg/injection, schedule: Q01DX011 (ip), vehicle: saline) 98 % of control; under setting [10], 106 % of control; under setting [3], 74 % of control and 88 % of control; under setting [11], 84 % of control and 107 % of control. Further, the T/C by setting is: under setting [12], 47 % of control; under setting [13], 56 % of control and 66 % of control; under setting [2], 119 % of control.

Regarding `O=C(O)c1[nH]c(=O)[nH]c(=O)c1Br`, the T/C under setting [3] is 54 % of control.

Take `O=c1[nH]cc(Br)c(=O)[nH]1`: the T/C (dose: 50.0 mg/kg/injection, schedule: Q02DX006 (ip), vehicle: other) was 56 % of control and the T/C under setting [14] was 71 % of control.

Regarding `CCc1c(CC(=O)O)c2cc(C)ccc2n1Cc1ccc(Cl)cc1`, the T/C was 79 % of control (dose: 1.56 mg/kg/injection, schedule: Q01DX011 (ip), vehicle: saline); 66 % of control under setting [8]; 109 % of control under setting [9]; 10 % of control under setting [10]; 22 % of control under setting [3].

For the compound `O=c1cn[nH]c(=O)[nH]1`, the T/C is, setting by setting: under setting [7], 159 % of control; (dose: 200.0 mg/kg/injection, schedule: Q01DX011 (ip), vehicle: carboxymethylcellulose (CMC)) 110 % of control.

Turning to `CS(=O)(=O)OCCCCOS(C)(=O)=O`, the T/C runs as follows: under setting [15], 86 % of control; under setting [4], 57 % of control; under setting [5], 69 % of control; under setting [16], 59 % of control; (dose: 12.5 mg/kg/injection, schedule: Q02DX006 (ip), vehicle: other) 51 % of control; (dose: 15.0 mg/kg/injection, schedule: Q01DX011 (ip), vehicle: carboxymethylcellulose (CMC)) 56 % of control. In addition, the T/C was 76 % of control (dose: 15.0 mg/kg/injection, schedule: Q02DX006 (ip), vehicle: other); 49 % of control under setting [17]; 26 % of control under setting [6].

On to `Cn1cnc([N+](=O)[O-])c1SCc1ccccc1`, for which the T/C under setting [3] was 52 % of control; the T/C under setting [11] was 49 % of control; the T/C under setting [12] is 33 % of control; the T/C under setting [13] is 54 % of control; the T/C (dose: 175.0 mg/kg/injection, schedule: Q01DX011 (ip), vehicle: saline) was 66 % of control.

With `CC(C)CNC(=S)N/N=C/c1ccccc1`, the T/C reads like this: under setting [14], 70 % of control; (dose: 100.0 mg/kg/injection, schedule: Q02DX006 (ip), vehicle: other) 94 % of control.

Consider `CN(Cc1cnc2nc(N)nc(N)c2n1)c1ccc(C(=O)N[C@@H](CCC(=O)O)C(=O)O)cc1`, for which the T/C (dose: 0.75 mg/kg/injection, schedule: Q01DX011 (ip), vehicle: saline) is 74 % of control; the T/C (dose: 1.0 mg/kg/injection, schedule: Q01DX011 (ip), vehicle: saline) was 105 % of control; the T/C (dose: 1.5 mg/kg/injection, schedule: Q01DX011 (ip), vehicle: saline) was 45 % of control; the T/C under setting [18] is 87 % of control.

In the case of `Cc1c2oc3c(C)ccc(C(=O)N[C@@H]4C(=O)N[C@H](C(C)C)C(=O)N5CCC[C@H]5C(=O)N(C)CC(=O)N(C)[C@@H](C(C)C)C(=O)O[C@H]4C)c3nc-2c(C(=O)N[C@@H]2C(=O)N[C@H](C(C)C)C(=O)N3CCC[C@H]3C(=O)N(C)CC(=O)N(C)[C@@H](C(C)C)C(=O)O[C@H]2C)c(N)c1=O` (I: [aThr][dV]P[Sar][NMeV] / II: [aThr][dV]P[Sar][NMeV]; ester I:1-I:C, II:1-II:C; linker I:N-II:N via Actinocin(9to1)), where the note is “dose: 0.03 mg/kg/injection, schedule: Q01DX011 (ip), vehicle: saline”, the T/C is 3 % of control.

On to `S=c1nc[nH]c2nc[nH]c12`, for which the T/C is, setting by setting: (dose: 1.5 mg/kg/injection, schedule: Q01DX011 (ip), vehicle: carboxymethylcellulose (CMC)) 26 % of control; under setting [15], 7 % of control; (dose: 2.5 mg/kg/injection, schedule: Q01DX011 (ip), vehicle: saline) 4 % of control; under setting [19], 8 % of control and 13 % of control; (dose: 5.0 mg/kg/injection, schedule: Q01DX011 (oral), vehicle: carboxymethylcellulose (CMC)) 1 % of control; (dose: 6.0 mg/kg/injection, schedule: Q01DX011 (ip), vehicle: carboxymethylcellulose (CMC)) 4 % of control. Moreover, the T/C under setting [16] was 2 % of control; the T/C under setting [20] was 6 % of control; the T/C under setting [17] is 2 % of control; the T/C (dose: 20.0 mg/kg/injection, schedule: Q01DX011 (oral), vehicle: alkali diluted with saline) was 2 % of control; the T/C (dose: 20.0 mg/kg/injection, schedule: Q02DX006 (ip), vehicle: other) is 2 % of control; the T/C (dose: 30.0 mg/kg/injection, schedule: Q02DX006 (ip), vehicle: other) was 3 % of control. Further, the T/C reads like this: (dose: 40.0 mg/kg/injection, schedule: Q01DX011 (oral), vehicle: alkali diluted with saline) 2 % of control; (dose: 80.0 mg/kg/injection, schedule: Q01DX011 (oral), vehicle: alkali diluted with saline) 1 % of control; (dose: 320.0 mg/kg/injection, schedule: Q01DX001 (oral), vehicle: alkali diluted with saline) 11 % of control; (dose: 320.0 mg/kg/injection, schedule: Q03DX004 (oral), vehicle: alkali diluted with saline) 1 % of control; (dose: 320.0 mg/kg/injection, schedule: Q07DX002 (oral), vehicle: alkali diluted with saline) 5 % of control; (dose: 480.0 mg/kg/injection, schedule: Q01DX001 (oral), vehicle: alkali diluted with saline) 8 % of control. Moreover, the T/C (dose: 480.0 mg/kg/injection, schedule: Q07DX002 (oral), vehicle: alkali diluted with saline) is 4 % of control; the T/C (dose: 640.0 mg/kg/injection, schedule: Q01DX001 (oral), vehicle: alkali diluted with saline) is 9 % of control; the T/C (dose: 640.0 mg/kg/injection, schedule: Q07DX002 (oral), vehicle: alkali diluted with saline) was 2 % of control; the T/C (dose: 960.0 mg/kg/injection, schedule: Q01DX001 (oral), vehicle: alkali diluted with saline) was 11 % of control.

As to `CCCNc1ncnc2c1cnn2C`, the T/C by setting is: under setting [21], 46 % of control; under setting [20], 32 % of control; under setting [22], 13 % of control.

Regarding `CS(=O)(=O)OCCCOS(C)(=O)=O`, the T/C was 83 % of control (dose: 15.0 mg/kg/injection, schedule: Q01DX011 (ip), vehicle: methylcellulose (MC)) and 35 % of control (dose: 30.0 mg/kg/injection, schedule: Q01DX011 (ip), vehicle: methylcellulose (MC)).

Regarding `CNc1ncnc2c1cnn2C`, the T/C is 84 % of control under setting [18], 89 % of control under setting [19], 120 % of control under setting [21] and 36 % of control under setting [22].
